Assay results: patent US20210045381A1, “FORMULATIONS” (priority 2018, published 2021)

Experiment: Release of pesticide from 3-D printed binary solid objects in a stirred dissolution basket
Assay type: physicochemical
Conditions: for Percentage Release, Water - after 720 min.: from binary solid object T7 (T3 + T4, no surfactant); for Percentage Release, Water - after 720 min. / Percentage Release, Water - after 30 min.: into water; for Percentage Release, S1 - after 30 min. / Percentage Release, S2 - after 30 min.: from binary solid object T7; for Percentage Release, S1 - after 30 min.: into S1 = water with 0.5% w/w Agnique FOH 90C-20; for Percentage Release, S2 - after 30 min.: into S2 = water with 0.5% w/w Agnique FOH 90C-20 and 1% Tween 80
Experimental: This Example illustrates a binary (two-sectioned) extruded solid object displaying both slow and fast release. The release of pesticide from the 3-D printed binary solid object T7 of Example 2 (containing T3 and T4) was measured. In each experiment three T7 solid objects were added to a dissolution basket which was stirred at 30 rpm. Release was measured into water; into water containing a commercially available surfactant (S1); and into water with two different types of commercially available surfactant (S2). […] Binary solid object T7 released 64% of the pesticide in 720 minutes. The release of the fungicide azoxystrobin in the same time period was only 27%; this was slow release. Release rates into the two surfactant containing media were faster for both pesticides. S1 contained water with 0.5% w/w of Agnique®FOH 90C-20 whereas S2 contained water with 0.5% w/w Agnique®FOH 90C-20 and 1% Tween® 80. Tween® 80 is a non-ionic surfactant: polyoxyethylene (20) sorbitan monooleate.
This Example illustrates the effect of a surfactant of the release profile of a binary (two-sectioned) extruded solid object. Similarly to Example 3, the releases of pesticides from the 3-D printed binary solid object T8 of Example 2 (containing T5 and T6) were measured; three solid objects T8 were added to a dissolution basket which was stirred at 30 rpm. […] Furthermore, compared to solid object T7 releasing fomesafen into water which already contains a high concentration of the same surfactant (S1 of Example 2), the release from T8 (the formulation with built-in surfactant) was considerably faster (78% versus 39.3% [S1]). […] Similar to the case for fomesafen we also see that the T8 azoxystrobin section (with built-in surfactant) released considerably more of the azoxystrobin than the T7 (surfactant free) solid object releasing into a surfactant solution (37% versus 28.9%).

[1] = from binary solid object T7 (sections T3 + T4, no surfactant), three objects, basket stirred at 30 rpm, 30 min
[2] = from binary solid object T7 into water, 720 min
[3] = from binary solid object T8 (fomesafen section T5, azoxystrobin section T6, both with built-in alkyl ethoxylate surfactant), 30 rpm, 30 min

| SMILES | Percentage Release, Water - after 720 min. (30 rpm, 720 min) | Percentage Release, Water - after 30 min. [1] | Percentage Release, S1 - after 30 min. (30 rpm, 30 min) | Percentage Release, S2 - after 30 min. (30 rpm, 30 min) | Release profile (in words) [2] | Percentage Release, Water - after 30 min. [3] | Increase of release rate from T8 compared to T7 (factor, water, 30 min, T8 (with surfactant) versus T7 (no surfactant)) | Release profile (in words) (from binary solid object T8 into water, 30 min) |
| --- | --- | --- | --- | --- | --- | --- | --- | --- |
| CO/C=C(/C(=O)OC)c1ccccc1Oc1cc(Oc2ccccc2C#N)ncn1 [Azoxystrobin] | 27% | 15.6% | 28.9% | 48.3% | slow release | 37% |  |  |
| CS(=O)(=O)NC(=O)c1cc(Oc2ccc(C(F)(F)F)cc2Cl)ccc1[N+](=O)[O-] [Fomesafen] | 64% | 23.6% | 39.3% | 45.9% | fast release | 78% | three | fast release |
